Biological target: T1, hPARG (Homo sapiens, UniProt Q86W56)
T1 construct: made in house; host or cells: E. coli
Test: PARG enzymatic activity assay (HTRF)
Type: biochemical
Settings: C-terminal His6-tag hPARG 65 pM, biotinylated-NAD ribosylated PARP1 substrate 8 nM
How it was run: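 His6-tagged hPARG from E. coli (65 pM final) preincubated 60 min RT with compound (10-point 4-fold dilution), then 8 nM biotinylated NAD-ribosylated PARP1 added for 10 min RT in Tris pH 7.4 buffer with EDTA, EGTA, DTT, KCl. HTRF detection (Eu-streptavidin/anti-His XL665, 620/665 nm); IC50 from 4-parameter fit against DMSO and no-enzyme controls.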

T1 sequence (Q86W56 whole entry): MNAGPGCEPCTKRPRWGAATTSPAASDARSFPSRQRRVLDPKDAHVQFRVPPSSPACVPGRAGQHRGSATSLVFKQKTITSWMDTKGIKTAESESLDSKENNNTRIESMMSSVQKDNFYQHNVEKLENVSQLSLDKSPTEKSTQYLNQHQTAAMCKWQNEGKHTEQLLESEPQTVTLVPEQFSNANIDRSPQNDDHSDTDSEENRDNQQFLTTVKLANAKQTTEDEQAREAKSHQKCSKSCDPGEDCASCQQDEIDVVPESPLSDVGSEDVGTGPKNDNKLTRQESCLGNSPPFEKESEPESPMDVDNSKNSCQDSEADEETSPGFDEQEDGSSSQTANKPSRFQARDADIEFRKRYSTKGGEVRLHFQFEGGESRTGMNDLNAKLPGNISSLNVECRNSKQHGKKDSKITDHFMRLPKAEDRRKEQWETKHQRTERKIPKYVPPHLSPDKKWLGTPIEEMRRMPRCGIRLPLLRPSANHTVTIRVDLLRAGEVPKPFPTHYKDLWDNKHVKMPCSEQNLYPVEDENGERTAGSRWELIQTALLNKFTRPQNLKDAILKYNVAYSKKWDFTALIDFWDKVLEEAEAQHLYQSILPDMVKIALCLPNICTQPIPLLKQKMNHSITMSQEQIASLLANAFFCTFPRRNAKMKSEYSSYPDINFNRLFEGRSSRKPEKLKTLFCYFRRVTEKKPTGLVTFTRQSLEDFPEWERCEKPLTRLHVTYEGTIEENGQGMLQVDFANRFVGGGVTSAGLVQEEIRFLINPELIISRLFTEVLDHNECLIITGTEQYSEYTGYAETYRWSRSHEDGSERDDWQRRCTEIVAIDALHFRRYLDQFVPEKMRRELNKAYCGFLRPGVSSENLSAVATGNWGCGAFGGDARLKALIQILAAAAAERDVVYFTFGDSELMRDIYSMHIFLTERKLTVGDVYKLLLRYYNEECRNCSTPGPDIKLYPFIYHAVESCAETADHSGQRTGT

| Compound | IC50 [nM] |
| --- | --- |
| CN1C[C@H]2C[C@@H]1CN2c1ncnc2c1c1ccc(S(=O)(=O)NC3(C#N)CC3)cc1n2-c1nnc(C(F)F)s1 [Example 30, N-(1-Cyanocyclopropyl)-9-(5-(difluoromethyl)-1,3,4-thiadiazol-2-yl)-4-((1R,4R)-5-methyl-2,5-diazabicyclo[2.2.1]heptan-2-yl)-9H-pyrimido[4,5-b]indole-7-sulfonamide] | ≤ 100 |
| CN(CC(=O)O)c1ncnc2c1c1ccc(S(=O)(=O)NC3(C#N)CC3)cc1n2-c1nnc(C(F)F)s1 [Example 19, N-(7-(N-(1-Cyanocyclopropyl)sulfamoyl)-9-(5-(difluoromethyl)-1,3,4-thiadiazol-2-yl)-9H-pyrimido[4,5-b]indol-4-yl)-N-methylglycine] | ≤ 100 |
| CN(CCc1ccccn1)c1ncnc2c1c1ccc(S(=O)(=O)NC3(C#N)CC3)cc1n2-c1nnc(C(F)F)s1 [Example 76, N-(1-Cyanocyclopropyl)-9-(5-(difluoromethyl)-1,3,4-thiadiazol-2-yl)-4-(methyl(2-(pyridin-2-yl)ethyl)amino)-9H-pyrimido[4,5-b]indole-7-sulfonamide] | ≤ 100 |
| N#CC1(NS(=O)(=O)c2ccc3c4c(N5CCn6cncc6C5)ncnc4n(-c4nnc(C(F)F)s4)c3c2)CC1 [Example 45, N-(1-Cyanocyclopropyl)-9-(5-(difluoromethyl)-1,3,4-thiadiazol-2-yl)-4-(5,6-dihydroimidazo[1,5-a]pyrazin-7(8H)-yl)-9H-pyrimido[4,5-b]indole-7-sulfonamide] | ≤ 100 |

Reference: patent publication US20260049088A1, “TRICYCLIC HETEROCYCLIC DERIVATIVES, COMPOSITIONS AND USES THEREOF” (Danatlas Pharmaceuticals Co., Ltd., priority 2023, published 2026)
